Consider 2 molecules from patent publication US12466832B2, “Monohydrate and crystalline forms of 6-[(3S,4S)-4-methyl-1-(pyrimidin-2-ylmethyl)pyrrolidin-3-yl]-3-tetrahydropyran-4-yl-7H-imidazo[1,5-a]pyrazin-8-one” (Cardurion Pharmaceuticals, Inc., priority 2018, dated 2025).

The structures appear in SMILES notation. ≈ marks a conversion by molar mass, not a printed value. Entries after “also recorded” stand apart in the source; their conditions may differ. Some results are limits rather than exact numbers.

As usually defined, the solubility (thermodynamic) is solubility found after equilibrating the solid with the medium. Broadly, the solubility is how much of the substance goes into solution per volume. Broadly, the Solubility is the concentration that dissolves in the medium under given conditions. Read a high Solubility as a readily soluble substance.

What all share (assay type): physicochemical
A short description of data set [1]: Thermodynamic aqueous solubility. The note with it: thermodynamic from solid, water, 25° C. As to the method: Aqueous solubility was determined by suspending sufficient compound in relevant media to give a maximum final concentration of ≥200 mg/ml of the parent freeform of the compound. The suspension was equilibrated at 25° C., on a Heidolph plate shaker set to 750 rpm for 24 hours. The pH of the saturated solution was then measured and the suspension filtered through a glass fibre C filter (particle retention 1.2 μm) and diluted appropriately. Quantitation was by HPLC with reference to a standard solution of approximately 0.15 mg/ml in DMSO. Different volumes of the standard, diluted and undiluted sample solutions were injected.
The solubility was calculated using the peak areas determined by integration of the peak found at the same retention time as the principal peak in the standard injection.
Analysis was performed on an Agilent HP1100 series system equipped with a diode array detector and using ChemStation software.

The nature of data set [2]: pH profiling solubility experiments. The following applies: 25 °C, thermodynamic from solid. As to the method:
Procedure: pH profiling solubility experiments were performed on MH1 and MH2. Solubility was determined in singlicate by suspending sufficient compound in relevant media (1.00 ml) to give a maximum final concentration as shown in the Table 17.
The suspensions were equilibrated at 25° C., on a Heidolph plate shaker set to 750 rpm for 24 hours. Samples were pH adjusted as required using 0.5M/1M HCl and 0.2M NaOH to within 0.1 of the desired pH unit (where possible). The pHs of the saturated solutions were measured (where applicable) and an appearance was recorded. The suspensions were filtered through a glass fibre C filter (particle retention […]) and diluted appropriately. Quantitation was by HPLC with reference to a standard solution of approximately 0.15 mg/ml in DMSO. Different volumes of the standard, diluted and undiluted sample solutions were injected. The solubility was calculated using the peak areas determined by integration of the peak found at the same retention time as the principal peak in the standard injection.

Data set [3] can be described thus: Solubility repeat at pH 1.2 (reverse addition). The following applies: pH 1.2 buffered media, pH maintained at 1.2, reverse addition. The procedure: Procedure: pH 1.2 buffered media (0.4 ml) was added to two separate 7 ml vials. For each compound, material was added in portions to the pH 1.2 media. After each addition of compound, the vial was vortex mixed and the pH and appearance was recorded. The samples were adjusted to pH 1.2 with 1M HCl to within 0.05 of the desired pH unit. This was repeated until no further material was available (˜400 mg for each form, which would give a maximum concentration of around 1000 mg/ml if no adjustment was required).

The nature of data set [4]: Gravimetric Vapour Sorption (GVS). The procedure:
Sorption isotherms were obtained using a SMS DVS Intrinsic moisture sorption analyzer, controlled by DVS Intrinsic Control software. The sample temperature was maintained at 25° C. by the instrument controls. The humidity was controlled by mixing streams of dry and wet nitrogen, with a total flow rate of 200 ml/min. The relative humidity was measured by a calibrated Rotronic probe (dynamic range of 1.0-100% RH), located near the sample. The weight change, (mass relaxation) of the sample as a function of % RH was constantly monitored by a microbalance (accuracy ±0.005 mg).
Typically, 5-30 mg of sample was placed in a tared mesh stainless steel basket under ambient conditions. The sample was loaded and unloaded at 40% RH and 25° C. (typical room conditions). A moisture sorption isotherm was performed as outlined below (2 scans per complete cycle). The standard isotherm was performed at 25° C. at 10% RH intervals over a 0-90% RH range. Typically, a double cycle (4 scans) was carried out. Data analysis was carried out within Microsoft Excel using the DVS Analysis Suite.
The sample was recovered after completion of the isotherm and re-analyzed by XRPD.

The nature of data set [5]: Drying investigation of the two hydrates (vacuum oven, XRPD and TGA). As to the method: Procedure: MH1 and MH2 were placed in a vacuum oven at 50° C. and RT for 24 h. The samples were then analysed by TGA and XRPD immediately after removal and after 4 hours standing under ambient conditions.
A short description of data set [6]: Variable temperature XRPD (VT XRPD). The procedure: For variable temperature (VT) experiments the samples were prepared and analysed in an Anton Paar chromed sample holder. A heating/cooling rate of 10° C./min was used with a 2 min isothermal hold before the measurement started. The measurement parameters are as per the standard screening data collection method (detailed above). Measurements were taken at the following temperatures: 25, 50, 75, 100, 160, and 25° C. The sample was then reanalyzed by XRPD after 1 h to check for complete rehydration.
MH1 was analysed at 25, 50, 75, 100, 160 and 25° C. (10° C./min heating rate and a 2 min wait before the measurement started) on the Empyrean. The sample was then reanalysed by XRPD after 10 and 20 min to check for rehydration.
(§1) Procedure: A second batch of MH2 material was prepared using the same procedure. This sample was then analysed by VTXRPD and by XRPD under vacuum.

The next data set is described as follows: XRPD under vacuum. As to the method: For vacuum experiments the samples were prepared and analysed in an Anton Paar chromed sample holder. The measurement parameters are as per the standard screening data collection method (detailed above), at 25° C. with no vacuum (I2). A vacuum of around 50 mbar was then applied and the sample measured every 5 min until the anhydrate pattern was obtained for three consecutive measurements (to ensure complete dehydration, up to sample I8). The vacuum was then released and the sample analysed every 5 min for 6 measurements (until sample I22). The sample was then reanalyzed by XRPD after 1 h to check for complete rehydration.
MH1 was analysed at 25° C. with no vacuum. A vacuum of around 50 mbar was then applied and the sample measured every 5 min until the anhydrate pattern was obtained for three consecutive measurements (to ensure complete dehydration). The vacuum was then released and the sample analysed every 5 min for 6 measurements before the front of the sample stage was removed.
as §1

As for `C[C@@H]1CN(Cc2ncccn2)C[C@H]1c1cn2c(C3CCOCC3)ncc2c(=O)[nH]1` [MH2, 6-[(3S,4S)-4-methyl-1-(pyrimidin-2-ylmethyl)pyrrolidin-3-yl]-3-tetrahydropyran-4-yl-7H-imidazo[1,5-a]pyrazin-8-one], the thermodynamic solubility at 24 h in data set [1] was found to be 36.5 mg/mL (≈ 92.5 mM). For the same molecule, the solubility at 24 h was > 275 mg/mL in data set [2] (pH 1.2 media, pH 1.2, simulated gastric fluid, media pH 1.2, 25° C., pH not maintained, final pH 5.02 (MH1-A), 6.63 (MH2-A)); > 99 mg/mL in data set [2] (pH 4.0 media, pH 4, aqueous buffer, media pH 4.0, 25° C.); > 147 mg/mL in data set [2] (pH 6.5 media, pH 6.5, aqueous buffer, media pH 6.5, 25° C.); 58 mg/mL (≈ 147 mM) in data set [2] (pH 7.5 media, pH 7.5, aqueous buffer, media pH 7.5, 25° C.). The “Solubility at pH 1.2” value in data set [3] is >161 mg/ml. Further, the “GVS first sorption cycle uptake” value in data set [4] (40 to 90% RH, 25° C.) is listed as “lack of uptake; also recorded: First sorption cycle from 40 to 90% RH, no uptake”. The “XRPD post-GVS” value in data set [4] (solid form after GVS) is reported as “rehydrated as MH1; also recorded: Crystalline - Matches MH1”. The “XRPD (T = 0, 50° C.)” value in data set [5] (vacuum oven 50° C. 24 h, immediately after removal) was “Matches MH1 and AH”. Also, in data set [5] (vacuum oven 50° C. 24 h, immediately after removal, lost between 25 and 100° C.), the “TGA (T = 0, 50° C.)” value worked out at 0.6% w/w lost between. Further, in data set [5] (vacuum oven 50° C. 24 h, then 4 hours ambient, lost between 25 and 100° C.), the “TGA (T = 4 h, 50° C.)” value was determined as 1.9% w/w lost between. Also, the “XRPD (T = 4 h, 50° C.)” value in data set [5] (vacuum oven 50° C. 24 h, then 4 hours at ambient conditions) is “Matches MH1”. Moreover, the “XRPD (T = 0, RT)” value in data set [5] (vacuum oven RT 24 h, immediately after removal) is “Matches MH1 and AH”. The “TGA (T = 0, RT)” value in data set [5] (vacuum oven RT 24 h, immediately after removal, lost between 25 and 100° C.) stood at 0.2% w/w lost between. Moreover, the “TGA (T = 4 h, RT)” value in data set [5] (vacuum oven RT 24 h, then 4 hours ambient, lost between 25 and 100° C.) was 1.9% w/w lost between. Besides, the “XRPD (T = 4 h, RT)” value in data set [5] (vacuum oven RT 24 h, then 4 hours at ambient conditions) was “Matches MH1”. For the same molecule, the “Form by VT XRPD upon heating” value in data set [6] (50° C.) was “mixture of MH2 and AH”; in data set [6] (75° C.), “complete conversion to AH”. In data set [6] (re-cooled to 25° C.), the “Form by VT XRPD after cooling back” value was “completely transformed into MH1”. The “Final XRPD pattern after vacuum released” value in the data set “XRPD under vacuum” (data collected for 55 minutes after release) was “mixture of AH and MH1”. Also, the “Form by XRPD on reanalysis” value in the data set “XRPD under vacuum” (reanalyzed after 1 h) is given as “complete rehydration to MH 1”. Besides, in “XRPD under vacuum” (vacuum of around 50 mbar, 25° C.), the “Time under vacuum to conversion to the anhydrate by XRPD” value was found to be 5 min.

In the case of `C[C@@H]1CN(Cc2ncccn2)C[C@H]1c1cn2c(C3CCOCC3)ncc2c(=O)[nH]1` [anhydrate, 6-[(3S,4S)-4-methyl-1-(pyrimidin-2-ylmethyl)pyrrolidin-3-yl]-3-tetrahydropyran-4-yl-7H-imidazo[1,5-a]pyrazin-8-one], the “Conversion under ambient conditions” value is reported as “readily converts to MH1” in data set [6] (after VT XRPD, standing at 25° C.) and “readily converts to MH1” in the data set “XRPD under vacuum” (after vacuum XRPD, ambient air).
